What was measured:
[1] = system: immature rat uterus; assay: Immature Uterine Wet Weight Assay, agonist mode (Example 906); format: in vivo; conditions: dosed PO, QD×3
Method: Female immature CD-IGS rats (21 days old upon arrival) are treated for three days. Animals are dosed daily for three days. For Antagonist Mode, Vehicle or test compound is administered orally by gavage followed 15 minutes later by an oral dose of 0.1 mg/kg Ethynyl Estradiol. For Agonist Mode, Vehicle or test compound is administered orally by gavage. On the fourth day 24 hours after dose, plasma is collected for pharmacokinetic analysis. Immediately following plasma collection, the animals are euthanized and the uterus removed and weighed.
Uteri and ovaries from 2 animals per group are fixed in 10% neutral buffered formalin and paraffin embedded, sectioned and stained for H&E (SDPath). Stained tissues are analyzed and read by a board certified pathologist. […]
Mice were treated with Formula I compounds (1R,3R)-1-(2,6-difluoro-4-((1-(3-fluoropropyl)azetidin-3-yl)oxy)phenyl)-2-(2-fluoro-2-methylpropyl)-3-methyl-2,3,4,9-tetrahydro-1H-pyrido[3,4-b]indole 101 and (1R,3R)-1-(2,6-difluoro-4-(2-(3-(fluoromethyl)azetidin-1-yl)ethoxy)phenyl)-2-(2-fluoro-2-methylpropyl)-3-methyl-2,3,4,9-tetrahydro-1H-pyrido[3,4-b]indole 102, tamoxifen, fulvestrant, AZD9496 (WO 2014/191726, Example 1, page 74; U.S. Pat. No. 9,155,727), and two controls: Vehicle and Vehicle plus ethynyl estradiol (EE). […] Uterine Wet Weight (UWW): Body Weight ratios were calculated. […]

[2] = biological target: T1, estrogen receptor alpha (ESR1) (Homo sapiens, UniProt P03372); assay: Breast Cancer Cell ERa High Content Fluorescence Imaging Degradation Assay (Example 901); format: cell-based; conditions: Table 1a; MCF7 breast cancer cells, 4 hours; plateau of the maximal effect; DMSO and Fulvestrant define 0% and 100% changes in ESR1
T1 construct: endogenous in cells; host or cells: MCF7 breast cancer cells
T1 sequence (P03372 1-595): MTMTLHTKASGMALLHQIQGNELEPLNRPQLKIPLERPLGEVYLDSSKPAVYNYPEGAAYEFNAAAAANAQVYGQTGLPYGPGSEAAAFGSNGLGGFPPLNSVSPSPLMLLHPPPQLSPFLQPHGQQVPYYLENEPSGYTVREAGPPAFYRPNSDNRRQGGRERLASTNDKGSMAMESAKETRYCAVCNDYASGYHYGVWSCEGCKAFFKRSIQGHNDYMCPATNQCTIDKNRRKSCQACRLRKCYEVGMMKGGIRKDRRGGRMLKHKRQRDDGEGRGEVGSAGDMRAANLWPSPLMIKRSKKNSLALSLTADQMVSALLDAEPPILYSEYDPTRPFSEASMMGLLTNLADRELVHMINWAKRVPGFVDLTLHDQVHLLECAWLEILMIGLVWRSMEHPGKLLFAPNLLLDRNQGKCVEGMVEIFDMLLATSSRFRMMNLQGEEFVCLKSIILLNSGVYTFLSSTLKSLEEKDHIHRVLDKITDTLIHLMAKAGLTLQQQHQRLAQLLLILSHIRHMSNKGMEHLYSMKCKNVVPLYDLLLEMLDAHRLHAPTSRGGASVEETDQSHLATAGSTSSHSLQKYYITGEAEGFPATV
Procedure, shortened: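 MCF7 cells in phenol red-free RPMI with 10% charcoal-stripped FBS, exposed to compound at 0.05–835 nM (10-point, 1.8×, duplicate; 0.84% DMSO) for 4 h at 37 °C. Fixed cells immunostained for ESR1 (F10 mAb, Alexa 488) with Hoechst nuclear mask; nuclear ESR1 intensity imaged per cell. DMSO and 5 nM fulvestrant set 0%/100%; EC50 and Sinf by robust fit.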

[3] = system: MCF7 cells; assay: In vitro cell proliferation assays (Examples 902 and 903), MCF7; format: cell-based; conditions: Homo sapiens, MCF7, Table 1a, read-out: ER-alpha MCF7 HCS (EC50)

ER-alpha MCF7 HCS (S inf) [2] [%]	EC50 [3] [pM]	Structure (SMILES)	activity in agonist mode UWW assay [1]
		C[C@@H]1Cc2c([nH]c3ccccc23)[C@@H](c2c(F)cc(/C=C/C(=O)O)cc2F)N1CC(C)(C)F [AZD9496]	partial agonist
−101	35	C[C@@H]1Cc2c([nH]c3cccc(F)c23)[C@@H](c2c(F)cc([C@H](O)C3CN(CCCF)C3)cc2F)N1CC(F)(F)CO [Compound 143, 3-((1R,3R)-1-(2,6-difluoro-4-((R)-(1-(3-fluoropropyl)azetidin-3-yl)(hydroxy)methyl)phenyl)-5-fluoro-3-methyl-3,4-dihydro-1H-pyrido[3,4-b]indol-2(9H)-yl)-2,2-difluoropropan-1-ol]	
